In patent US20140248212A1, “NON-IMMUNOGENIC POSITRON EMISSION TOMOGRAPHY REPORTER GENE SYSTEMS” (THE REGENTS OF THE UNIVERSITY OF CALIFORNIA, priority 2011, published 2014):
Positions count from the first letter of the chain named. “Also recorded” adds a separate entry of the source. Blank lines part the entries; values can stand above or below the compound they belong to.

Key:
[1] = tested on: WT TK2; details: reported by Ponomarev et al. 2007; cited from earlier work
[2] = target: T1, thymidine kinase 2 (TK2) (Homo sapiens, UniProt O00142); details: cited from earlier work
T1 sequence (O00142 34-265): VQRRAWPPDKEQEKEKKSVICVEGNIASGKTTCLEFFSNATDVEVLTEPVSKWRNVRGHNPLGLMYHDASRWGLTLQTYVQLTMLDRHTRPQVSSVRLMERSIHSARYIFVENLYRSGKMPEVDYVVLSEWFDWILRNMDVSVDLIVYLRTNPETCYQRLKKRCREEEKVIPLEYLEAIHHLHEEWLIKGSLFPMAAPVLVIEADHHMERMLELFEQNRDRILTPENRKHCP

[3] = accumulation in liver, small intestine, kidneys, urinary bladder only; cited from earlier work
[4] = target: T2, TK2-N93D/L109F (Homo sapiens, UniProt O00142, L109F/N93D); experiment: Kinetic analyses of recombinant TK2 (NADH-dependent enzyme coupled assay), TK2-N93D/L109F; type: biochemical; details: 37° C., 1 mM ATP
T2 construct: hexahistidine (N, cleaved yes); SUMO (N, cleaved yes); made in house; host or cells: Escherichia coli BL21 (DE3) C41, modified pET14b
T2 sequence (O00142 51-265 N93D/L109F): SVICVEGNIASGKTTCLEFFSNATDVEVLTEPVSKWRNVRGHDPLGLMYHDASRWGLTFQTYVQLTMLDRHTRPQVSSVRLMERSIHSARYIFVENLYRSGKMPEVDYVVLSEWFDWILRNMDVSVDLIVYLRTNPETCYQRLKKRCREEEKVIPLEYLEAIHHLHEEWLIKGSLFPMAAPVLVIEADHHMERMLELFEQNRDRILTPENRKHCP
Description: FIG. 34 provides a table that illustrates the kinetics of the phosphorylation of D and L-nucleosides by the TK2 mutants. Kinase assays were performed with recombinant protein with 200 μM of the listed substrate.

[5] = target: T3, WT TK2 (Homo sapiens, UniProt O00142); experiment: Kinetic analyses of recombinant TK2 (NADH-dependent enzyme coupled assay), WT TK2; type: biochemical; details: 37° C., 1 mM ATP
T3 construct: hexahistidine (N, cleaved yes); SUMO (N, cleaved yes); made in house; host or cells: Escherichia coli BL21 (DE3) C41, modified pET14b
T3 sequence (O00142 51-265): T2 sequence (O00142 51-265 N93D/L109F) with D43N, F59L

[6] = target: deoxycytidine kinase (dCK) (Homo sapiens, UniProt P27707); details: cited from earlier work
deoxycytidine kinase (dCK), sequence (P27707 whole entry): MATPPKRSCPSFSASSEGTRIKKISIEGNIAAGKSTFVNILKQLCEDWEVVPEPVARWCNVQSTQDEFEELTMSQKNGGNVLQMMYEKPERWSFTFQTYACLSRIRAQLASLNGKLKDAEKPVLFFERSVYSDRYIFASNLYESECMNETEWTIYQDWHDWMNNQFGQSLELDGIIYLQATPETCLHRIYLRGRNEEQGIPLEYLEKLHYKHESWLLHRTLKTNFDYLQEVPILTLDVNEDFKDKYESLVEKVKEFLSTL

[7] = target: T4, TK2-N93D (Homo sapiens, UniProt O00142, N93D); experiment: Kinetic analyses of recombinant TK2 (NADH-dependent enzyme coupled assay), TK2-N93D; details: 37° C., 1 mM ATP
T4 sequence (O00142 51-265 N93D): T2 sequence (O00142 51-265 N93D/L109F) with F59L
Description: (§4) A NADH-dependent enzyme coupled assay (see, e.g. Agarwal, K. C., et al. (1978) Methods Enzymol. 51, 483-490) was used. Using a Cary UV spectrophotometer, measurements were made in triplicate at 37° C. in a buffer containing 100 mM Tris, pH 7.5, 100 mM KCl, 5 mM MgCl2, and 1 mM ATP. For data in which kobs is given, a single nucleoside concentration of 200 μM was used. For data in which both Km and kcat are given, the nucleoside concentration was varied between 15 and 500 μM. TK2 concentration in the cuvette was 400 nM. Data were fit to the Michaelis-Menten equation using SigmaPlot. […] Therefore, all of the kinetic data using the Michaelis-Menten equation without the Hill coefficient is presented.

[8] = target: T5, TK2-L109F (Homo sapiens, UniProt O00142, L109F); experiment: Kinetic analyses of recombinant TK2 (NADH-dependent enzyme coupled assay), TK2-L109F; details: 37° C., 1 mM ATP
T5 sequence (O00142 51-265 L109F): T2 sequence (O00142 51-265 N93D/L109F) with D43N
Description: as §4

[9] = Human whole-body PET/CT biodistribution of PET reporter probes; type: in vivo
Source text: All studies involving human volunteers were approved. A healthy person and a healthy volunteer were recruited for the L-^18F-FMAU biodistribution study. Each volunteer received a bolus intravenous injection of ˜56 MBq (1.5 mCi) sterile L-^18F-FMAU and had four consecutive whole-body (starting from just above the head to above the knees, 6 bed positions, 5-min scan at each bed position) PET scans (Biograph 64, Siemens), with the first scan starting shortly after intravenous injection of L-^18F-FMAU. A low dose CT scan was also obtained for attenuation correction. Volunteers urinated after all scans had been performed. The region of interest analysis was performed to measure mean standard uptake values of L-^18F-FMAU in major organs/tissues. To illustrate the biodistribution of ^18F-FHBG, unpublished scan from a previous study (see, e.g. Yaghoubi, S. S., et al. (2009) Nat. Clin. Pract. Oncol. 6, 53-58) was used.

[10] = tested on: L1210 tumors expressing WT TK2; experiment: microPET/CT of SCID mice bearing L1210-PRG tumors (WT TK2); type: in vivo; details: 3 hrs post-injection, FIG. 10D
Source text: (§1) To compare TK2, TK2-N93D and HSV1-sr39tk in vivo, PRG-expressing L1210 cells were implanted subcutaneously in SCID mice that were then scanned with L-[^18F]FMAU (FIG. 10A) and [^18F]FHBG (FIG. 10C) on consecutive days. […] Signals obtained with sr39tk were slightly higher than those obtained with the human TK2-N93D PRG (the difference was not statistically significant). […] L-[^18F]FMAU accumulation in TK2-N93D transduced tumors was ˜20 times higher than the accumulation in tumors transduced with the control (eYFP only) vector. While this ratio is higher than the 6.67 ratio reported for WT TK2 as a PRG with D-[^18F]FEAU as the PRP (see, e.g. Ponomarev, V., et al. J Nucl Med 48:819-826, 2007), the HSV1-sr39tk/[^18F]FHBG combination still outperforms the TK2-N93D/L-[^18F]FMAU combination by ˜2-fold. […]
(§2) Animal studies were approved and carried out according to specific guidelines. […] Image data were evaluated in three-dimensional histograms and reconstructed with a zoom factor of 2.1 using three-dimensional ordered set expectation maximization (OSEM) with 2 iterations followed by MAP (maximum a posteriori) reconstruction with 18 iterations (beta=0.1). Images were analyzed using OsiriX Imaging Software Version 3.8.

[11] = Biodistribution of PET reporter probes in mice (microPET/CT); type: in vivo, C57/BL6 mice
Description: To identify candidate PRPs, eight nucleoside analogs (FIG. 7A) were synthesized that were amenable to ^18F labeling (the first criterion for PRPs). To identify PRP candidates with rapid clearance from normal tissues and low overall background (second criterion for PRGs), biodistribution studies in mice were performed. It was observed that natural (D) nucleosides had higher background than non-natural (L) nucleoside analogs. […] The next step was to identify a human nucleoside kinase that phosphorylates L-[^18F]FMAU and L-[^18F]FEAU, and can be converted into a new PRG that matches four criteria:
Initially, a group of nucleoside analogs amenable to fluorine-18 labeling were identified. These PET tracers, 5 of which were novel, were then screened to determine their biodistribution in C57/BL6 mice (n=3 for each PET tracer) through dynamic microPET scans. […] Rational design is utilized to introduce mutations into human nucleoside kinase thymidine kinase 2 (TK2) to improve the affinity of the kinase for the top candidate probe. The sensitivity and specificity of the novel PET reporter probe/gene pair was then determined in vitro and in vivo using a murine cancer model.
(§3) Animal studies were approved and carried out according to specific guidelines. C57/BL6 mice were injected with the indicated probe and underwent micro-PET/CT analyses at 1- and 3-h post probe injection (Inveon, Siemens Medical Solutions USA Inc.; microCAT; Imtek Inc.). For tumor imaging studies, SCID mice were injected subcutaneously on day −7 in the right and left flanks with 1×10^6 L1210-PRG-expressing cells in 50% v/v phosphate-buffered saline and 50% v/v Matrigel™ (BD Biosciences). For imaging experiments, mice were kept warm and under gas anesthesia (2% v/v isoflurane) and were injected intravenously with 200 μCi of ^18F-labeled probes. A 3-h interval was allowed between probe administration and microPET/CT scanning Static microPET images were acquired for 600 s. Image data were evaluated in three-dimensional histograms and reconstructed with a zoom factor of 2.1 using three-dimensional ordered set expectation maximization (OSEM) with 2 iterations followed by MAP (maximum a posteriori) reconstruction with 18 iterations (beta=0.1). Images were analyzed using OsiriX Imaging Software Version 3.8.

[12] = tested on: L1210 tumors expressing TK2-N93D; experiment: microPET/CT of SCID mice bearing L1210-PRG tumors (TK2-N93D); type: in vivo; details: 3 hrs post-injection, FIG. 10D
Source text: To compare TK2, TK2-N93D and HSV1-sr39tk in vivo, PRG-expressing L1210 cells were implanted subcutaneously in SCID mice that were then scanned with L-[^18F]FMAU (FIG. 10A) and [^18F]FHBG (FIG. 10C) on consecutive days. […] Signals obtained with sr39tk were slightly higher than those obtained with the human TK2-N93D PRG (the difference was not statistically significant). […] L-[^18F]FMAU accumulation in TK2-N93D transduced tumors was ˜20 times higher than the accumulation in tumors transduced with the control (eYFP only) vector. While this ratio is higher than the 6.67 ratio reported for WT TK2 as a PRG with D-[^18F]FEAU as the PRP (see, e.g. Ponomarev, V., et al. J Nucl Med 48:819-826, 2007), the HSV1-sr39tk/[^18F]FHBG combination still outperforms the TK2-N93D/L-[^18F]FMAU combination by ˜2-fold. The significance of the 2-fold difference for the sensitivity of the new TK2-N93D PRG can be further investigated in the animal models discussed below (see, e.g. Gerth, M. L., et al. Biochem Biophys Res Commun 354:802-807, 2007; Liu, L., et al. Nucleic Acids Res 37:4472-4481, 2009; Iyidogan, P., et al. Biochemistry 47:4711-4720, 2008; Lutz, S., et al. Chimia (Aarau) 63:737-744 2009).
as §3

[13] = tested on: L1210 tumors expressing HSV1-sr39tk; experiment: microPET/CT of SCID mice bearing L1210-PRG tumors (HSV1-sr39tk); type: in vivo
Source text: as §1
as §2, with “3.8. […]” for “3.8.”

Structure (SMILES): CCc1cn([C@@H]2O[C@H](CO)[C@@H](O)[C@@H]2F)c(=O)[nH]c1=O [D-[^18F]FEAU, 2′-deoxy-2′-^18F-5-ethyl-1-β-D-arabinofuranosyluracil]
ratio of accumulation, PRG versus control [1]: 6.67
activity of kinase towards nucleoside analog [2]: active towards L-FMAU, D-
biodistribution as a candidate PRP [3]: favorable biodistribution

increase of kcat compared with TK2 [4]: 100%
kcat (L-FMAU)/kcat (D-dT) ratio [4]: 14.9
kcat (L-FMAU)/kcat (D-dT) ratio, higher than that for TK2 [4]: 4 fold
kcat (L-FMAU)/kcat (D-dT) ratio, higher than that for TK2-N93D [4]: ~40%
kcat (L-FMAU)/kcat (D-dT) ratio [5]: 3.7
decrease of kcat relative to WT TK2 [7]: 32%
increase of kcat/Km compared with WT TK2 [7]: 77%
kcat (L-FMAU)/kcat (D-dT) ratio compared with wild type [7]: nearly triples
kcat (L-FMAU)/kcat (D-dT) ratio [8]: 2.4
Structure (SMILES): Cc1cn([C@H]2O[C@@H](CO)[C@H](O)[C@H]2F)c(=O)[nH]c1=O [L-FMAU]
activity of kinase towards nucleoside analog [6]: Very low activity with L-FMAU
activity of kinase towards nucleoside analog [2]: substrate for human TK2; also recorded: active towards L-FMAU, D-

Structure (SMILES): Nc1nc2c(ncn2CCC(CO)C[18F])c(=O)[nH]1 (stereo not drawn) [^18F-FHBG, 9-[4-[^18F]fluoro-3-(hydroxymethyl)butyl]guanine, reference compound]
tissues with relatively high signals ([9]; 2 h post-administration): relatively high signals were observed in liver, kidneys, gall bladder, bladder, and the GI tract
tracer background within abdomen and pelvis ([9]; whole-body PET/CT, human): high abdominal background
[18F]FHBG accumulation in tumors [10]: Neither WT TK2 nor TK2-N93D expressing tumors accumulated detectable amounts
accumulation in the liver ([11]; 3-h time point): neither probe showed any accumulation
accumulation in the gallbladder ([11]; 3 h after administration): 7.45±5.31 % injected dose/g
accumulation in the gallbladder, 18F-FHBG relative to L-18F-FMAU ([11]; 3 h after administration): 4 times
retention in the abdominal cavity, 18F-FHBG relative to L-18F-FMAU ([11]; 3 h after administration): three times higher
retention in the thoracic cavity ([11]; 3 h after administration): very low retention
signals in the GI tract ([11]; 3 h after administration): detected throughout the GI tract
abdominal background ([11]; mice, compared with [18F]FHBG): high abdominal background
[18F]FHBG accumulation in tumors [12]: Neither WT TK2 nor TK2-N93D expressing tumors accumulated detectable amounts
probe uptake in L1210 tumors ([13]; 18F-FHBG, 3 h post-injection): 24.1±6.2 % injected dose/g
HSV1-sr39tk/[18F]FHBG combination outperforms TK2-N93D/L-[18F]FMAU combination ([13]; tumor to control ratio): ~2 fold
